Measurements: ChEMBL document CHEMBL1142441, “Stereochemical studies on the novel monoamine oxidase B substrates (1R,6S)- and (1S,6R)-3-methyl-6-phenyl-3-aza-bicyclo[4.1.0]heptane” (Bioorg Med Chem, 2008)

Biological target: T1, Amine oxidase [flavin-containing] B (Homo sapiens, UniProt P27338)
T1 sequence (P27338 whole entry): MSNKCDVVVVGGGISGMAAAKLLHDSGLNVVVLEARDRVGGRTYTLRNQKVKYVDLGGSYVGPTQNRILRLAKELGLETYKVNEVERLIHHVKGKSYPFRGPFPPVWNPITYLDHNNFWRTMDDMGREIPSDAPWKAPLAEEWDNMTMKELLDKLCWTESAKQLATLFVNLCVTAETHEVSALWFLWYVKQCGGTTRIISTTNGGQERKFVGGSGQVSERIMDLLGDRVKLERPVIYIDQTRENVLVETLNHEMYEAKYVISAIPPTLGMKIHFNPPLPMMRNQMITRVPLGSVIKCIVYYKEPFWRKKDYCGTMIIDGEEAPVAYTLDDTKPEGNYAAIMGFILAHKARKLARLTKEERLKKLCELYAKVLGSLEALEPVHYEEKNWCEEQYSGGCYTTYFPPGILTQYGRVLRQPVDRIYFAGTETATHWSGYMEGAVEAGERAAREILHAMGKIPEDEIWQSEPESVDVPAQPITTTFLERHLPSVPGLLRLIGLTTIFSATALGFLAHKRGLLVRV
Experiment: Activity of 50 nM human recombinant MAOB after 30 mins
Conditions: 0.5 h

Compound	Vmax [nmol]
CN1CC[C@@]2(c3ccccc3)C[C@H]2C1	135
CN1CC[C@]2(c3ccccc3)C[C@@H]2C1	135
